The source made the active and inactive calls. How the calls were made is not given here.
What follows are compounds tested against glucose-6-phosphate dehydrogenase-6-phosphogluconolactonase (Plasmodium falciparum 3D7) (assay: inhibition of P. falciparum G6PD activity – biochemical, kinetic NADPH detection, orthogonal assay, dose response (AID 540269)). Settings: purified PfG6PD-6PGL.

SMILES	IC50
CCOc1ccc(CNc2ccc(N3CCCC3)cc2)cc1	> 80 µM (inactive)
CCc1c(C(=O)Nc2ccccc2)c(C)[nH]c(=S)c1C#N	> 80 µM (inactive)
CCc1cc(-c2n[nH]c(C)c2-c2nc3ccccc3n2C)c(O)cc1O	9.3 µM
O=C1C=CC(=O)N1c1ccc2c(c1)C(NC(=O)C(F)(F)F)c1ccccc1-2 (stereo not drawn)	> 80 µM (inactive)
CN(C)c1cccc2c1c(NC(=O)c1ccc(F)cc1)nn2C	> 80 µM (inactive)
Cc1c(/C=C/C(=O)c2ccc(Cl)s2)cnn1C	41.1 µM
Cc1cc(C)c(S(=O)(=O)Nc2cc(SCC(=O)O)c(O)c3ccccc23)cc1C	41.4 µM
COc1cc(CNc2ccc(N3CCCC3)cc2)cc(Cl)c1OC	> 80 µM (inactive)
COc1ccc(S(=O)(=O)Nc2cc(SCC(=O)O)c(O)c3ccccc23)cc1	44.9 µM
COc1cc(C(=O)O/N=C2/C=C(C)C(=O)C=C2C)cc(OC)c1OC	> 80 µM (inactive)
O=C(Nc1ccccn1)c1sc2cc([N+](=O)[O-])ccc2c1Cl	> 80 µM (inactive)
O=C(Nc1nc(-c2ccncc2)cs1)C1COc2ccccc2O1 (stereo not drawn)	22.4 µM
O=S(=O)(Nc1c(O)ccc2ccccc12)c1ccccc1	9.3 µM
Fc1cccc(Cl)c1CNc1ccc(N2CCCC2)cc1	> 80 µM (inactive)
COc1ccc(CCn2c(NN=C(C)C)nc3c2c(=O)[nH]c(=O)n3C)cc1	> 80 µM (inactive)
CCOC(=O)Cc1csc(-n2sc3ccccc3c2=O)n1	31.3 µM
CCNc1nc(NC(C)C)nc(NS(=O)(=O)c2ccc(Cl)cc2)n1	> 80 µM (inactive)
OCc1ccccc1SSc1ccccc1CO	53.1 µM
Cc1cc(C)c2c(=O)n(CC(=O)Nc3cccc(F)c3)sc2n1	41.6 µM
CCC(C)c1ccccc1OCCn1ccnc1 (stereo not drawn)	> 80 µM (inactive)
Cc1ccc(-c2c(C(=O)N/N=C/c3cccs3)nnn2-c2nonc2N)cc1	> 80 µM (inactive)
[O-]/[N+](=C/c1cccnc1)c1ccc(Br)cc1	77.1 µM
O=c1[nH]c2ccc(NCc3ccccc3OCc3ccc(Cl)cc3)cc2[nH]1	> 80 µM (inactive)
Cc1cc(C)c2c(=O)n(CC(=O)NC3CCCC3)sc2n1	> 80 µM (inactive)
CCCN1CCc2cc(O)cc3c2[C@H]1Cc1ccc(O)c(O)c1-3	> 80 µM (inactive)
O=[N+]([O-])c1ccc2c(c1)-c1ccccc1C2O (stereo not drawn)	42.9 µM

SMILES	IC50
CN1CCN(C(=S)c2ccc(Br)cc2)CC1	> 80 µM (inactive)
O=[N+]([O-])c1ccc(-[n+]2ccc3ccccc3c2)c([N+](=O)[O-])c1	> 80 µM (inactive)
CCOc1ccc(Cl)cc1/C=N/NC(N)=O	48.7 µM
CN(C)c1ccc(C=c2c3cc([N+](=O)[O-])ccc3n3c2cc(-c2ccccc2)[n+]3C)cc1	35.1 µM
COC1=C(OC)C(=O)C(Sc2ccc3ccccc3c2)=CC1=O	23.3 µM
CC1(OC(=O)C2CCCC2)C(=O)C=C2C=C(c3ccsc3)N(CC3CC3)C=C2C1=O (stereo not drawn)	> 80 µM (inactive)
Cc1ccc(Nc2cc(C)c(O)c(C)c2)cc1	> 80 µM (inactive)
O=C(Cn1sc2ccccc2c1=O)Nc1ccc(Br)cc1	17 µM
COc1ccccc1N1C(=O)C=C(Sc2nc(C)cc(C)n2)C1=O	> 80 µM (inactive)
CC(C)Nc1ccc(Nc2ccccc2)cc1	> 80 µM (inactive)
Clc1ccc2nc(-c3ccc4c(c3)OCO4)cn2c1	40.7 µM
Cc1cc(C)nc(NC(N)=NCCc2ccccc2)n1	> 80 µM (inactive)
c1ccc(SSc2ccccn2)nc1	64.1 µM
S=c1ncc2[nH]c(=S)[nH]c2[nH]1	64.4 µM
O=C(Nc1ccc(N2CCN(C(=O)c3ccco3)CC2)c(Cl)c1)c1cc2ccccc2o1	53.8 µM
CC1N(C)c2cccc3cccc(c23)N1C	19.7 µM
CCOc1ccc(N(CC(=O)N/N=C/c2cc([N+](=O)[O-])ccc2Cl)S(C)(=O)=O)cc1	> 80 µM (inactive)
CCN1CCCC1CNC(=O)c1ccc2c(c1)NC(=O)/C(=C\c1ccccc1Cl)S2 (stereo not drawn)	8.01 µM
C[C@H](NC(N)=O)C(=O)Nc1ccc(N2CCOCC2)c(S(=O)(=O)Nc2ccc(Cl)cc2)c1	> 80 µM (inactive)
COc1ccc(OC)c2c1C(=O)C(Cl)=C(Cl)C2=O	20.3 µM
O=C1C=CC(=O)N1c1ccc(-c2nc3ccccc3o2)cc1	> 80 µM (inactive)
COc1ccc(CNC(=O)Cc2cn(C)c3ccccc23)c(OC)c1	> 80 µM (inactive)
CC1(C)CN(c2ccccc2)N(C(=O)c2ccc(C#N)cc2)C1=O	> 80 µM (inactive)
O=C(Nc1nnc(S(=O)(=O)N2CCOCC2)s1)c1ccc(F)cc1	56.9 µM
Cc1ccc(NC(=O)Cn2sc3ccccc3c2=O)cc1	14.4 µM
COc1ccc(N2CSC3=C(C#N)C(c4ccc(OC)c(OC)c4)CC(=O)N3C2)c(OC)c1 (stereo not drawn)	> 80 µM (inactive)

SMILES	IC50
COc1cc(/C=C/C(=O)c2ccc([N+](=O)[O-])o2)ccc1O	> 80 µM (inactive)
O=C1NC(=O)C(=Cc2ccc(-c3ccccc3[N+](=O)[O-])o2)C(=O)N1	69.9 µM
CCOC(=O)c1ccc(/[N+]([O-])=C/c2ccccc2)cc1	> 80 µM (inactive)
O=C(CNC(=O)c1ccc(Br)cc1)NCC(=O)OCC(=O)c1ccc([N+](=O)[O-])cc1	> 80 µM (inactive)
[O-]/[N+](=C\c1ccncc1)c1ccccc1	> 80 µM (inactive)
Cc1ccc(S(=O)(=O)C=CS(=O)(=O)c2ccc(C)cc2)cc1	41.2 µM
COc1ccc(N2C(=O)/C(=C/c3cccs3)NC2=S)cc1	40.2 µM
CC1CN(c2ccccc2)NC1=O (stereo not drawn)	> 80 µM (inactive)
Cc1ccc(/C=C/C(=O)NC2CCCCCCC2)o1	> 80 µM (inactive)
CC1(OC(=O)C2CCCC2)C(=O)C=C2C=C(c3ccsc3)N(CCc3c[nH]c4ccccc34)C=C2C1=O (stereo not drawn)	> 80 µM (inactive)
CCC1(CC)Cc2ccccc2C(N)=C1C#N	> 80 µM (inactive)
COC1(OC)C=CC(=O)C=C1NC(=O)c1ccccc1OC(C)=O	> 80 µM (inactive)
COc1cccc(CNc2ccc3[nH]c(=O)[nH]c3c2)c1OCc1ccccc1Cl	> 80 µM (inactive)
CC(=O)OCC1(C)CN(c2ccccc2)NC1=O (stereo not drawn)	> 80 µM (inactive)
CCn1c(SCC(=O)Nc2ccccc2OC)nnc1-c1cnccn1	> 80 µM (inactive)
COc1cc(OC)c(C2CC(=O)N3CN(c4ccccc4)CSC3=C2C#N)cc1OC (stereo not drawn)	> 80 µM (inactive)
Cc1ccc(S(=O)c2ccc([N+](=O)[O-])c3nonc23)cc1 (stereo not drawn)	> 80 µM (inactive)
COc1cc(SSc2cc(OC)cc([N+](=O)[O-])c2N)c(N)c([N+](=O)[O-])c1	44.6 µM
CCN(CC)C(=O)c1c(C)[nH]c(=S)c(C#N)c1-c1ccco1	> 80 µM (inactive)
O=C1NC(=S)NC(=O)C1=Cc1ccc(Br)s1	> 80 µM (inactive)
Cc1cc(C(=O)O)ccc1-n1c(C)cc(C=C2C(=O)c3ccccc3C2=O)c1C	> 80 µM (inactive)
CCOC(=O)c1c(C2COc3ccccc3O2)csc1NC(=O)c1ccco1 (stereo not drawn)	> 80 µM (inactive)
COc1ccc(CN(C)S(=O)(=O)c2nnc(NC(=O)c3cccc(C)c3)s2)cc1OC	22.2 µM
COc1ccc(Cl)cc1NC(=O)c1cccc([N+](=O)[O-])c1O	> 80 µM (inactive)
O=S(=O)(Nc1cccc2cccnc12)c1ccccc1	20.9 µM
COc1ccc(NC(=S)N(CCC(C)C)C2CCN(C(C)C)CC2)cc1Cl	56.6 µM

Source: PubChem BioAssay AID540269 (Sanford-Burnham Center for Chemical Genomics, 2011)
